The supplement of paper PMC10307832

Assays:
Assay in all cases: relative viability (nuclei count vs DMSO), 5 days (fraction); higher = more cells survive
NCI-H1793 = details: first compound 4 µM
How it was run: (§1)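 A single step with final 0.05% Triton X-100, 1% formaldehyde and 1 ug/ml Hoechst fixed the cells and stained nuclei 5 days after treatment. Lung cancer cell lines in 1536-well plates had been treated by pin tool the day after seeding with one drug alone or a fixed anchor-drug dose plus five library-drug doses (not always all listed) in √10 steps, and nuclei were counted on 4× images. Relative viability is the ratio of nuclei in treated wells to nuclei in vehicle wells, taken as the median of duplicate plates.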

NCI-H1944 = test system: NCI-H1944
How it was run: as §1

NCI-H2347 = test system: NCI-H2347
How it was run: as §1

NCI-H23 = test system: NCI-H23
How it was run: as §1

NCI-H460 = test system: NCI-H460
How it was run: as §1

NCI-H650 = test system: NCI-H650
How it was run: as §1

NCI-H838 = test system: NCI-H838
How it was run: as §1

PC-14 = test system: PC-14
How it was run: as §1

PC-3 [JPC-3] = test system: PC-3 [JPC-3]
How it was run: as §1

RERF-LC-KJ = test system: RERF-LC-KJ
How it was run: as §1

SW 1573 = test system: SW 1573
How it was run: as §1

SW 900 = test system: SW 900
How it was run: as §1

## COc1cc(N2CCC(C(N)=O)CC2)ccc1Nc1nc(N)c(Cl)c(Nc2ccccc2S(=O)(=O)C(C)C)n1 [HG-5-88-01] + Nc1nc2[nH]cc(CCc3ccc(C(=O)N[C@@H](CCC(=O)O)C(=O)O)cc3)c2c(=O)[nH]1 [Pemetrexed] (partner 0.2 µM)
NCI-H1793
  relative viability: 0.522
NCI-H1944; first compound 0.04 µM
  relative viability: 0.642
NCI-H1944; first compound 0.1265 µM
  relative viability: 0.695
NCI-H1944; first compound 0.4 µM
  relative viability: 0.643
NCI-H1944; first compound 1.265 µM
  relative viability: 0.615
NCI-H1944; first compound 4 µM
  relative viability: 0.564
NCI-H2347; first compound 0.04 µM
  relative viability: 0.413
NCI-H2347; first compound 0.1265 µM
  relative viability: 0.399
NCI-H2347; first compound 0.4 µM
  relative viability: 0.433
NCI-H2347; first compound 1.265 µM
  relative viability: 0.424
NCI-H2347; first compound 4 µM
  relative viability: 0.441
NCI-H23; first compound 0.04 µM
  relative viability: 0.678
NCI-H23; first compound 0.1265 µM
  relative viability: 0.77
NCI-H23; first compound 0.4 µM
  relative viability: 0.592
NCI-H23; first compound 1.265 µM
  relative viability: 0.56
NCI-H23; first compound 4 µM
  relative viability: 0.385
NCI-H460; first compound 0.04 µM
  relative viability: 0.0629
NCI-H460; first compound 0.1265 µM
  relative viability: 0.0611
NCI-H460; first compound 0.4 µM
  relative viability: 0.054
NCI-H460; first compound 1.265 µM
  relative viability: 0.0633
NCI-H460; first compound 4 µM
  relative viability: 0.0701
NCI-H650; first compound 0.04 µM
  relative viability: 0.985
NCI-H650; first compound 0.1265 µM
  relative viability: 0.91
NCI-H650; first compound 0.4 µM
  relative viability: 0.844
NCI-H650; first compound 1.265 µM
  relative viability: 0.896
NCI-H650; first compound 4 µM
  relative viability: 0.476
NCI-H838; first compound 0.04 µM
  relative viability: 0.248
NCI-H838; first compound 0.1265 µM
  relative viability: 0.256
NCI-H838; first compound 0.4 µM
  relative viability: 0.209
NCI-H838; first compound 1.265 µM
  relative viability: 0.234
NCI-H838; first compound 4 µM
  relative viability: 0.246
PC-14; first compound 0.04 µM
  relative viability: 0.124
PC-14; first compound 0.1265 µM
  relative viability: 0.114
PC-14; first compound 0.4 µM
  relative viability: 0.0722
PC-14; first compound 1.265 µM
  relative viability: 0.129
PC-14; first compound 4 µM
  relative viability: 0.074
PC-3 [JPC-3]; first compound 0.04 µM
  relative viability: 1.16
PC-3 [JPC-3]; first compound 0.1265 µM
  relative viability: 1.1
PC-3 [JPC-3]; first compound 0.4 µM
  relative viability: 0.935
PC-3 [JPC-3]; first compound 1.265 µM
  relative viability: 0.913
PC-3 [JPC-3]; first compound 4 µM
  relative viability: 0.348
RERF-LC-KJ; first compound 0.04 µM
  relative viability: 0.521
RERF-LC-KJ; first compound 0.1265 µM
  relative viability: 0.509
RERF-LC-KJ; first compound 0.4 µM
  relative viability: 0.448
RERF-LC-KJ; first compound 1.265 µM
  relative viability: 0.446
RERF-LC-KJ; first compound 4 µM
  relative viability: 0.239
SW 1573; first compound 0.04 µM
  relative viability: 0.871
SW 1573; first compound 0.1265 µM
  relative viability: 0.79
SW 1573; first compound 0.4 µM
  relative viability: 0.689
SW 1573; first compound 1.265 µM
  relative viability: 0.777
SW 1573; first compound 4 µM
  relative viability: 0.823
SW 900; first compound 0.04 µM
  relative viability: 0.504
SW 900; first compound 0.1265 µM
  relative viability: 0.512
SW 900; first compound 0.4 µM
  relative viability: 0.46
SW 900; first compound 1.265 µM
  relative viability: 0.477
SW 900; first compound 4 µM
  relative viability: 0.379
